Consider one molecule from ChEMBL document CHEMBL5728937, “Substituted tetrahydroquinolinone compounds as ROR gamma modulators” (2022).

The test deals with T1, Nuclear receptor ROR-gamma (Homo sapiens, UniProt P51449).
T1 sequence (P51449 whole entry): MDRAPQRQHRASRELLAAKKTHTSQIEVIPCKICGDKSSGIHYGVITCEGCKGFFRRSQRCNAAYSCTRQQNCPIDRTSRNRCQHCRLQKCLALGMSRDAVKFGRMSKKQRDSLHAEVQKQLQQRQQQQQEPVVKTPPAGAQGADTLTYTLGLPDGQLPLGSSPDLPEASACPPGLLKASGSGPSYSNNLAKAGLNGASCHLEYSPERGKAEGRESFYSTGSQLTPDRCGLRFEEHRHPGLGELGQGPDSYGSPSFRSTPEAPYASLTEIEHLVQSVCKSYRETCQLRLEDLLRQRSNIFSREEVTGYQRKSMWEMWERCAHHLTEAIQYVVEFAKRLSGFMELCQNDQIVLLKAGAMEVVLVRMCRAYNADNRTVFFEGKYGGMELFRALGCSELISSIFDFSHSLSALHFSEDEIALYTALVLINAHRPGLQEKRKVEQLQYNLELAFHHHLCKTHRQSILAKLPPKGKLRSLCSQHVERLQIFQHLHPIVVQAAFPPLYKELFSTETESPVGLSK
Nature of the test: Radio-Ligand Binding Assay: ROR gamma radioligand binding was performed using 3H 25-Hydroxycholesterol in a competitive displacement assay using dextran charcoal method. Using 5 nM 3H 25-Hydroxycholesterol with 300 ng RORγ LBD (in house expressed in E. coli) along with the compound were incubated in the binding buffer (50 mM HEPES, pH 7.5, 150 mM NaCl, 0.01% BSA and 5 mM MgCl2) for 30 min at room temperature. Then dextran-charcoal mixture (0.5% charcoal: 0.05% dextran) was used for separation and the supernatant was read on the Perkin Elmer Trilux Microbeta counter. Dose response curves were generated for 10 compound concentrations using GraphPad Prism software Version 5 (San Diego, Calif., USA) using non-linear regression curve fit for sigmoidal dose response (variable slope).

For orientation: IC50 means the concentration that gives 50% inhibition. On to `CCS(=O)(=O)c1ccc(CC(=O)Nc2cc(C)c3c(n2)CCC(C)(c2ccc(OC)nn2)C3=O)cc1` (single isomer, unassigned), for which the IC50 is greater than 300 nM.
